Tests used:
MCF-7 cells [1] = assay: Cell cycle analysis (DAPI, flow cytometry); format: cell-based, human; conditions: 48 h, IC50 dose
Protocol: The mode of action was further investigated by analysing the effects of Ph3SnL1 and cisplatin on the cell cycle phase distribution of MCF-7 cells. This was evaluated by cytofluorimetric analysis using DAPI staining. […] While cisplatin acts on DNA (among other effects), the lipophilic cationic nature of triphenyltin(IV) may guide it preferentially to mitochondria to intervene with cells’ energy metabolism.
The Falcon tubes were centrifuged for 3 min at 1000 rpm and the supernatant was discarded. Afterwards, the cells were washed with 1 mL of PBS, centrifuged for 3 min at 1000 rpm and the supernatant was discarded. The cells were resuspended in 300 μL of ice-cold PBS buffer and then fixed by adding them dropwise to 700 μL of ice-cold absolute ethanol. The cells were stored for 24 h at 4 °C, then centrifuged for 3 min at 1000 rpm, washed with PBS and stained with 1 mL of DAPI (4′,6-diamidino-2-phenylindole) working solution [39]. The prepared cells were incubated at room temperature for 10 min and analysed by flow cytometry.

MCF-7 cells [2] = assay: ROS/RNS (DHR) and NO (DAF-FM) production, flow cytometry; format: cell-based, human; conditions: 48 h, IC50 concentration
Description: Reactive oxygen (ROS) and nitrogen species (RNS) are natural by-products of the aerobic metabolism in cells. At physiological concentrations, they play a significant role in regulating numerous cellular processes. On the other hand, it is well-known that the reactive oxygen (O2^•−, H2O2, OH^•−) and nitrogen species (NO) are highly reactive molecules that easily damage cells by interacting with biomolecules such as proteins, lipids, carbohydrates, and nucleic acids, thus triggering different pathological conditions (inflammation, cardiovascular disorders, neurodegenerative diseases, and the formation of cancer cells).
For the investigation of ROS/RNS production the cells from the T25 flask were collected by applying 1 mL of trypsin and diluted with 9 mL of complete medium. Using 1 mL of DHR (dihydrorhodamine) working solution the cells were stained and incubated at 37 °C and 5% CO2 for 10 min. The staining process was stopped by applying 4 mL of complete medium, then the solution was centrifuged for 3 min at 1000 rpm and the supernatant was discarded. The cells were resuspended in complete medium (1 mL/well) and seeded in a 6 well plate. […] The prepared cells were analysed by flow cytometry.
The cells were washed with PBS and then treated with 1 mL of DAF-FM (4-amino-5-methylamino-2,7′-diflurofluorescin diacetate) working solution. […] The prepared cells were analysed by flow cytometry.

MCF-7 cells [3] = assay: Morphological analysis (AO and DAPI staining); format: cell-based, human; conditions: 24 h, IC50 or 2 × IC50
Protocol: The morphological changes of MCF-7 cell death induced by Ph3SnL1 and cisplatin were studied by AO (acridine orange) and DAPI (4′,6-diamidino-2-phenylindole) staining, and examined under a fluorescence microscope. Acridine orange can cross the cell membrane and viable and early apoptotic cells can be detected. Chromatin condensation, seen as dense green areas, or membrane blebbing, both appearing in apoptosis, is easily proven by AO staining. After 24 h of treatment (IC50 and 2 × IC50 concentrations) the cells were stained with acridine orange (3 μg/mL AO in PBS), and observed with a fluorescence microscope (Fluorescence microscope-Invitrogen EVOS FL 2 Auto 2 Cell Imaging System). On the other hand, for the DAPI assay 0.5 mL of Triton (0.1% in PBS) was added to the treated cells after the fixing the cells with 0.5 mL of 4% paraformaldehyde (PFA) for 8 min. Thereafter, 0.5 mL of DAPI solution was used to stain the cells for 5 min in the dark. The morphological characteristics were visualized under a fluorescence microscope (Fluorescence microscope-Invitrogen EVOS FL 2 Auto 2 Cell Imaging System).

[4] = test system: PC-3 (human prostate cancer) cells; assay: MTT assay, PC-3 cells; format: cell-based; conditions: MTT assay, 48 h incubation; read-out: IC50 (mean ± SD), PC-3, MTT
Protocol: (§1) The cell proliferations of ligand precursors and organotin(IV) compounds were evaluated with the aid of MTT (3-(4,5-dimethylthiazol-2-yl)-2,5-12 diphenyltetrazolium bromide) and CV (crystal violet) assays toward prostate (PC-3), colon (HT-29), breast (MCF-7) and hepatic (HepG2) cancer cell lines, and normal mouse embryonic fibroblast cells (NIH 3T3). The cells were cultivated in T75 flasks containing 10 mL of complete medium and kept at 37 °C and 5% CO2 […]. The nutrient medium was RPMI-1640 (PAA Laboratories) supplemented with 10% foetal bovine serum, L-glutamine, and penicillin/streptomycin (Sigma). Afterward, 5.000 cells of PC-3 and MCF-7 and 1.500 cells of HT-29 and HepG2 were transferred into 96 well-plates and used for MTT and CV assays. For microscopy investigations as well as FACS measurements (except for ROS/RNS measurements), MCF-7 cells were seeded overnight in 6-well plates (150,000 cells/well) in […] of complete medium. […] In all assays, control cells were untreated MCF-7 cells incubated for the same time period as treated cells and treated with appropriate reagents in various assays. BD FACS Aria III was used for flow cytometry experiments and results were analysed using BD FACSDiva software (BD Biosciences, Heidelberg, Germany) and Cyflogic (V 1.2.1, CyFlo Ltd., Turku, Finland). A fluorescence microscope Invitrogen EVOS FL 2 Auto 2 Cell Imaging System was used for visualization of the cells as well as for detection of fluorescence in the cells.
(§2) Ligands HL1‒HL3, organotin(IV) compounds, and cisplatin were investigated in 9 different concentrations (100, 50, 10, 5, 1, 0.5, 0.1, 0.05, 0.01 μM). Using the complete medium, each stock solution of the test compounds (20 mM in DMSO) was diluted to obtain the working solution. The final concentration of DMSO never overstepped 0.5%, which is non-toxic to the cells. Three technical replicates were performed for each concentration. The treated cells were incubated for 48 h at 37 °C under 5% CO2 and the viability of the cells was determined using MTT and CV assays according to the literature procedure. The IC50 values, defined as 50% inhibitory concentration, were calculated with a four-parameter logistic function and presented in a mean. All experiments were performed in triplicate.

[5] = test system: HepG2 (hepatocellular cancer) cells; assay: CV (crystal violet) assay, HepG2 cells; format: cell-based, human; conditions: CV assay, 48 h incubation; read-out: IC50 (mean ± SD), HepG2, CV
Protocol: as §1, §2

SMILES: O=C(CCc1nc(-c2ccccc2)c(-c2ccccc2)o1)[O][Sn]([c]1ccccc1)([c]1ccccc1)[c]1ccccc1 [Ph3SnL1, (3-(4,5-Diphenyloxazol-2-yl)propanoato)triphenyltin(IV)]
- cell cycle phase distribution (MCF-7 cells [1]): does not lead to any significant changes in the cell cycle distribution
- production of ROS/RNS species (MCF-7 cells [2]): does not affect the production of ROS and RNS
- morphological changes (AO and DAPI staining) (MCF-7 cells [3]): notable morphological changes
- IC50 [4]: 181 ± 27 nM
- IC50 [5]: 366 ± 51 nM

SMILES: N.N.[Cl][Pt][Cl] [cisplatin, reference compound]
- cell population in G1/G0 phase (MCF-7 cells [1]): considerable decrease
- cell population in S and G2/M phases (MCF-7 cells [1]): increase
- population of cells in the sub-G1 phase (MCF-7 cells [1]): did not lead to any observable changes
- production of ROS/RNS species (MCF-7 cells [2]): elevates the production of both reactive oxygen and nitrogen species
- IC50 [4]: 14300 ± 260 nM
- IC50 [5]: 3650 ± 350 nM

Reference: paper PMC8198038, “In Vitro Evaluation of Antiproliferative Properties of Novel Organotin(IV) Carboxylate Compounds with Propanoic Acid Derivatives on a Panel of Human Cancer Cell Lines” (Molecules, 2021)
